Where a SMILES comes first, the peptide text is derived from it. Where no end group is shown, it is not given here. [ ]: non-standard residue; d: D form. Aib = CC(C)(N)C(=O)O
Columns and labels:
[1] = biological target: T1, LCAT (purified from human plasma) (Homo sapiens, UniProt P04180); assay: LCAT activation assay; assay type: biochemical; set-up: ACTIVITY (%) LCAT: concentration or dose not given beside the values; details: for LCAT activation: as compared with native ApoA-I (100%); for ACTIVITY (%) LCAT: LCAT activation as compared with native human ApoA-I
T1 construct: from tissue; host or cells: human plasma
T1 sequence (P04180 25-440): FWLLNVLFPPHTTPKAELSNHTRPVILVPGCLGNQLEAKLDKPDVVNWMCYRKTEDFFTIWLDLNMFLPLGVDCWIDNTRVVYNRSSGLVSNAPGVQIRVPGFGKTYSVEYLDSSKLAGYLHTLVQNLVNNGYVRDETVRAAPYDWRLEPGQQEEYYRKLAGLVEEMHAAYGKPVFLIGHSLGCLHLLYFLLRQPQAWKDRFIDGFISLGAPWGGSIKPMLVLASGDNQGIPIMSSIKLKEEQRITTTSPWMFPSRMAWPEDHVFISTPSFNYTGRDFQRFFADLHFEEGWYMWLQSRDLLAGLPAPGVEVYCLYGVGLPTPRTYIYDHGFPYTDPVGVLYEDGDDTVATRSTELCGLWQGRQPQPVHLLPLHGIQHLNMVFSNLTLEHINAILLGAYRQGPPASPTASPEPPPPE
Protocol: The peptides synthesized as described in Section 6, supra, were analyzed in vitro for their ability to activate LCAT. In the LCAT assay, substrate vesicles (small unilamellar vesicles or “SUVs”) composed of egg phophatidylcholine (EPC) or 1-Palmitoyl-2-oleyl-phosphatidyl-choline (POPC) and radiolabelled cholesterol are preincubated with equivalent masses either of peptide or ApoA-I (isolated from human plasma). The reaction is initiated by addition of LCAT (purified from human plasma). Native ApoA-I, which was used as positive control, represents 100% activation activity. “Specific activity” (i.e., units of activity (LCAT activation)/unit of mass) of the peptides can be calculated as the concentration of peptide that achieves maximum LCAT activation. For example, a series of concentrations of the peptide (e.a., a limiting dilution) can be assayed to determine the “specific activity” for the peptide—the concentration which achieves maximal LCAT activation (i.e., percentage conversion of cholesterol to cholesterol ester) at a specific timepoint in the assay (e.g., 1 hr.). When plotting percentage conversion of cholesterol at, e.g., 1 hr., against the concentration of peptide used, the “specific activity” can be identified as the concentration of peptide that achieves a plateau on the plotted curve.
The vesicles used in the LCAT assay are SUVs composed of egg phosphatidylcholine (EPC) or 1-palmitoyl-2-oleyl-phosphatidylcholine (POPC) and cholesterol with a molar ratio of 20:1. To prepare a vesicle stock solution sufficient for 40 assays, 7.7 mg EPC (or 7.6 mg POPC; 10 μmol), 78 μg (0.2 μmol) 4-^14C-cholesterol, 116 μg cholesterol (0.3 μmol) are dissolved in 5 ml xylene and lyophilized. Thereafter 4 ml of assay buffer is added to the dry powder and sonicated under nitrogen atmosphere at 4° C. Sonication conditions: Branson 250 sonicator, 10 mm tip, 6×5 minutes; Assay buffer: 10 mM Tris, 0.14 M NaCl, 1 mM EDTA, pH 7.4). The sonicated mixture is centrifuged 6 times for 5 minutes each time at 14,000 rpm (16,000×g) to remove titanium particles. The resulting clear solution is used for the enzyme assay.
For the LCAT purification, dextran sulfate/Mg^2+ treatment of human plasma is used to obtain lipoprotein deficient serum (LPDS), which is sequentially chromatographed on Phenylsepharose, Affigelblue, ConcanavalinA sepharose and anti-ApoA-I affinity chromatography, as summarized for a representative purification in TABLE IX, below: […]

[2] = Circular dichroism: degree of helicity (free, SUVs, micelles, TFE); details: for He (%) free: percent helicity of free, unbound peptide; for He (%) SUVs: percent helicity of peptide-SUV complexes; for He (%) mics: percent helicity of peptide-micelle complexes; for He (%) TFE: percent helicity of peptide-TFE solution
Protocol: Far UV circular dichroism spectra were recorded between 190 and 260 nm (in 0.5 nm or 0.2 nm increments) with a AVIV62DS spectrometer (AVIV Associates, Lakewood, N.J., USA) equipped with a thermoelectric cell holder and sample changer. The instrument was calibrated with (+)-10-camphoric acid. Between one and three scans were collected for each sample, using 10 cm, 5 cm, 1 cm and 0.1 cm path length quartz Suprasil cells, respectively, for peptide concentrations of 10^−7 M to 10^−4 M. The bandwidth was fixed at 1.5 nm and the scan speed to 1 s per wavelength step. The reported data are the mean of at least 2 or 3 independent measurements.
After background substraction, spectra were converted to molar ellipticity (θ) per residue in deg. […] dmol^−1. The peptide concentration was determined by amino acid analysis and also by absorption spectrometry on a Perkin Elmer Lambda 17 UV/Visible spectrophotometer when the peptide contained a chromophore (tryptophane, dansyl, naphtylalanine).
CD spectra were obtained with free, unbound peptide (5 μM in 5 mM phosphate buffer, pH 7.4); with peptide-SUV complexes (20:1 EPC:Chol., Ri=30 and Ri=50); with peptide-micelle complexes (1-myristoyl-2-hydroxy-sn-glycero-3-phosphatidyl choline, Ri=100); and with free, unbound peptide in the presence of 2,2,2-trifluoroethanol (TFE) (5 μM peptide, 90% vol TFE).
The SUVs were obtained by dispersing the lipids (10 mM, 20:1 EPC:Chol., Avanti Polar Lipids, Ala.) in phosphate buffer (5 mM, pH 7.4) with bubbling N2 for 5 min., followed by sonication (1.5 hr.) in a bath sonicator. The homogeneity of the preparation was checked by FPLC.
The micelles were obtained by dispersing the lipid (6 mM 1-myristoyl-2-hydroxy-sn-glycero-3-phosphatidyl choline, Avanti Polar Lipids, AL) in phosphate buffer (5 mM, pH 7.4) with bubbling N2 for 5 min., followed by vortexing.
To obtain the peptide-SUV complexes, SUVs were added to the peptide (5 μM in 5 mM phosphate buffer, pH 7.4) at a phospholipid-peptide molar ratio (Ri) of 30 or 50.
To obtain the peptide-micelle complexes, micelles were added to the peptide (5 μM in 5 mM phosphate buffer, pH 7.4) at a Ri of 100.
All spectra were recorded at 37° C. The stability of peptide 4 (SEQ ID NO:4) as a function of temperature (both free in buffer and in micelles) was determined by recording spectra at a series of different temperatures.
The degree of helicity of peptide 4 (SEQ ID NO:4) as a function of concentration was also determined.
The degree of helicity of the peptides in the various conditions was determined from the mean residue ellipticity at 222 nm (Chen et al., 1974, Biochemistry 13:3350-3359) or by comparing the CD spectra obtained to reference spectra available on databases (16 helical reference spectra from Provencher & Glockner, 1981, Biochemistry 20:33-37; denatured protein reference spectra from Venyaminov et al., 1993, Anal. Biochem. 214:17-24) using the CONTIN curve-fitting algorithm version 2DP, CD-1 pack (Aug. 1982) (Provencher, 1982, Comput. Phys. Commun. 27:213-227, 229-242). Acceptable fit was determined using the statistical analysis methodology provided by the CONTIN algorithm.

[3] = system: lipidic vesicles (EPC/Chol 5%); assay: Fluorescence spectroscopy lipid binding; details: for I/Io / λmax: peptide 2 μM
Protocol: The lipid binding properties of the peptides synthesized in Section 6, supra, were tested by fluorescence measurements with labeled peptides, in the present case Tryptophane (Trp or W) or Naphtylalanine (Nal). The fluorescence spectra were recorded on a Fluoromax from Spex (Jobin-Yvon) equipped with a Xenon lamp of 150 W, two monochromators (excitation and emission), a photomultiplier R-928 for detection sensitive in the red up to 850 nm and a thermoelectric magnetic stirred cell holder. Quartz Suprasil cuvettes were used for measurements in the micromolar concentration range. A device of variable slits (from 0.4 to 5 nm) allows modulation of the incident and emitted intensities according to the concentration of peptide used. The reported values are in general the average of between 2 to 4 spectra. The peptide concentration is determined by absorption spectrometry on a Philips PU 8800 usng the absorption band of the Trp (ε280 nm=5,550 M^−1cm^−1 in Tris buffer) or the Nal (ε224 nm=92,770 M^−1cm^−1 in methanol).
Fluorescence spectra of the peptides were recorded between 290 nm and 450 nm in Tris-HCl buffer (20 mM, pH=7.5), in the presence and absence of lipidic vesicles. The small unilamellar vesicles were formed after rehydration in buffer of the lyophilized phospholipids, dispersion and tip sonification under a N2 stream. The lipids used were either Egg PC/Chol. (20:1) or POPC/Chol. (20:1). The spectra were recorded at a peptide concentration of 2 μM and at a temperature of 37° C. The fluorescence reference standard in the case of Trp was N-acetyltryptophanylamide (NATA).
Lipid binding studies were done through progressive lipidic vesicle addition to the peptide in solution at 2 μM (slits:5 nm in excitation and 1.5 nm in emission). Dilution effects were taken into account for the fluorescence intensity determination. The lipid concentrations were varied from 10 to 600 μM and the molar ratio of lipid to peptide (Ri) was varied from 5 to 300. The wavelength of excitation was set at 280 nm for both Trp and Nal.
The data were directly recorded and treated by an IBM-PC linked to the spectrofluorimeter through the DM3000F software from Spex. The spectra were corrected by substraction of the solvent contribution and by application of a coefficient given by the constructor taking into account the variation of the photomultiplier response versus the wavelength.
The fluorescence spectra of the peptides were characterized by the wavelength at their maximum of fluorescence emission and by their quantum yield compared to NATA in the case of peptides labeled with a tryptophane. The process of binding to lipids was analyzed by calculating the shift of the wavelength at the maximum of fluorescence emission, (λmax), and the variation of the relative. fluorescence intensity of emission versus the lipid concentration. The relative fluorescence intensity is defined as the following ratio: (I−I0)λmax/I0λmax. I and I0 are both measured at the (λmax) corresponding to the initial free state of the peptide, i.e., without lipids. I is the intensity at a defined lipid to peptide ratio and I0 is the same parameter measured in absence of lipids. The absence of these variations is relevant of the absence of interactions of the peptides with the lipids.

Compound	He (%) free [2]	He (%) SUVs [2]	He (%) mics [2]	ACTIVITY (%) LCAT [1]	He (%) TFE [2]	also measured
EWLEAFYKKVLEKLKELF [peptide 18AM4, reference compound]	18%	47%	44%			LCAT activation [1]: less than 4%
CC(=O)N1CCC[C@H]1C(=O)N[C@H](C(=O)N[C@@H](CC(C)C)C(=O)N[C@@H](CC(=O)O)C(=O)N[C@@H](CCC(=O)O)C(=O)N[C@@H](Cc1ccccc1)C(=O)N[C@@H](CCCN=C(N)N)C(=O)N[C@@H](CCC(=O)O)C(=O)N[C@@H](CCCCN)C(=O)N[C@@H](CC(C)C)C(=O)N[C@@H](CC(N)=O)C(=O)N[C@@H](CCC(=O)O)C(=O)N[C@@H](CCC(=O)O)C(=O)N[C@@H](CC(C)C)C(=O)N[C@@H](CCC(=O)O)C(=O)N[C@@H](C)C(=O)N[C@@H](CC(C)C)C(=O)N[C@@H](CCCCN)C(=O)N[C@@H](CCC(N)=O)C(=O)N[C@@H](CCCCN)C(=O)N[C@@H](CC(C)C)C(=O)N[C@@H](CCCCN)C(N)=O)C(C)C [Segrest's consensus 22-mer, reference compound] (Ac-PVLDEFREKLNEELEALKQKLK-NH2)				10%		LCAT activation [1]: 10%
PVLDLFRELWNELLEALKQKLK [peptide 15, peptide 4 containing a Trp residue at position 10]	55%	64%			68%	lipid binding (in words) [3]: very high affinity; lipid to peptide molar ratio at maximum burying of the Tryptophane residue [3]: lower than 5; maximum of the Trp emission wavelength when bound to lipidic vesicles ([3]; EPC/Chol 5% vesicles, shifted from 332 nm): 323 nm; I/Io ([3]; Lipid:Peptide Molar Ratio (Ri) 0): 0; λmax ([3]; Ri 0 (buffer, no lipid)): 332 nm; I/Io ([3]; Ri 5): 10.8; λmax ([3]; Ri 5): 323 nm; I/Io ([3]; Ri 10): 13.2; λmax ([3]; Ri 10): 323.5 nm; I/Io ([3]; Ri 30): 17.5; λmax ([3]; Ri 30): 323 nm; I/Io ([3]; Ri 100): 26.4; λmax ([3]; Ri 100): 323 nm; I/Io ([3]; Ri 200): 43.5; λmax ([3]; Ri 200): 323 nm
pVLDLFRELLNELLEALKQKLK [peptide 21]				57%		
PVLDLFRELLNLXLEALKEKLK (PVLDLFRELLNL[Aib]LEALKEKLK) [peptide 102, X is Aib; Gln-19 replaced by Glu-19]						LCAT activation (in words) [1]: did not activate LCAT
pVLDLFRELLNEGLEALKQKLK [peptide 19]				58%		
pVLDLFRELLNELLEALKQKLKK [peptide 5]				90%		

Now from value to compound, other results behind:

He (%) free [2]	He (%) SUVs [2]	He (%) mics [2]	ACTIVITY (%) LCAT [1]	He (%) TFE [2]	Compound	also measured
60%	70%	87%	79%	71%	PVLDLFRELLNELLEAZKQKLK [peptide 10]	
70%	80%	96%	61%		PVLDLFRELLNELLEALOQOLO [peptide 14]	
72%	82%	92%	44%	81%	PVLDLFRELLNELZEALKQKLK [peptide 27]	

Source: US6602854B1, “Branched multimeric Apo A-I agonist compounds” (priority 1997, dated 2003)
